Converted amounts (≈) assume the structure as drawn. The source made the active and inactive calls. No cut-off for these calls is given here.

The subject of one test is KB. Briefly: Cytotoxicity against human KB cells. The test is classed as functional. The following applies: for EC50: Homo sapiens, KB, read-out: ED50 (the source's name).
In test [1] the test system is P388. Briefly: In vivo antitumor activity against mouse P388 cells at 2.2 mg/kg relative to control. The test is classed as functional.
Test [2] deals with P388. Briefly: In vivo antitumor activity against mouse P388 cells at 16 mg/kg relative to control. The test is classed as functional.
Test [3] relates to P388. Briefly: In vivo antitumor activity against mouse P388 cells at 0.26 to 4.3 mg/kg. The test is classed as functional, organism-based.

In the case of `CC(=O)O[C@@]12CO[C@@H]1C[C@@H](O)[C@@]1(C)C(=O)[C@H](O)C3=C(C)[C@@H](OC(=O)[C@H](O)[C@@H](NC(=O)c4ccccc4)c4ccccc4)C[C@@](O)([C@@H](OC(=O)c4ccccc4)[C@H]21)C3(C)C`, the EC50 in the test with KB came to 0.034 µg/mL (≈ 0.0419 µM). `C/C=C(\C)C(=O)N[C@@H](c1ccccc1)[C@@H](O)C(=O)O[C@H]1C[C@@]2(O)[C@@H](OC(=O)c3ccccc3)[C@@H]3[C@]4(OC(C)=O)CO[C@@H]4C[C@@H](O)[C@@]3(C)C(=O)[C@H](O)C(=C1C)C2(C)C`: in the test with KB, the EC50 was found to be 0.046 µg/mL (≈ 0.0582 µM). Broadly, the T/C is the ratio of treated to control. With `CC(=O)O[C@H]1C(=O)[C@@]2(C)[C@H]([C@H](OC(=O)c3ccccc3)[C@]3(O)C[C@H](OC(=O)[C@H](O)[C@@H](NC(=O)c4ccccc4)c4ccccc4)C(C)=C1C3(C)C)[C@]1(OC(C)=O)CO[C@@H]1C[C@@H]2O` [PACLITAXEL], the EC50 in the test with KB came to 0.0012 µg/mL (≈ 0.00141 µM). Further, in the test on P388 [1], the T/C amounted to 152%. Regarding `C/C=C(\C)C(=O)N[C@@H](c1ccccc1)[C@@H](O)C(=O)O[C@H]1C[C@@]2(O)[C@@H](OC(=O)c3ccccc3)[C@@H]3[C@]4(OC(C)=O)CO[C@@H]4C[C@H](O)[C@@]3(C)C(=O)[C@H](OC(C)=O)C(=C1C)C2(C)C` [CEPHALOMANNINE], the EC50 in the test with KB was 0.0038 µg/mL (≈ 0.00457 µM). The same compound came in with a T/C in the test with P388 [1] of 162%. For the compound `C/C=C(\C)C(=O)N[C@@H](c1ccccc1)[C@@H](O)C(=O)O[C@H]1C[C@@]2(O)[C@@H](OC(=O)c3ccccc3)[C@@H]3[C@]4(OC(C)=O)CO[C@@H]4C[C@H](O)[C@@]3(C)C(=O)[C@H](O)C(=C1C)C2(C)C`, the EC50 with KB worked out at 0.031 µg/mL (≈ 0.0392 µM). The T/C in the test on P388 [2] worked out at 130%.

On to `CC(=O)O[C@H]1C(=O)[C@@]2(CO)[C@H]([C@H](OC(=O)c3ccccc3)[C@]3(O)C[C@H](O)C(C)=C1C3(C)C)[C@]1(OC(C)=O)CO[C@@H]1C[C@@H]2O`, for which the outcome in the test with P388 [3] was inactive. In addition, the Activity with KB is 2.2 µg/mL. For the compound `CC(=O)O[C@@]12CO[C@@H]1C[C@H](O)[C@@]1(C)C(=O)[C@H](O)C3=C(C)[C@@H](OC(=O)[C@H](O)[C@@H](NC(=O)c4ccccc4)c4ccccc4)C[C@@](O)([C@@H](OC(=O)c4ccccc4)[C@H]21)C3(C)C`, in the test on KB, the EC50 is 0.027 µg/mL (≈ 0.0333 µM). Also, the T/C in the test with P388 [2] turned out to be 135%.

The record behind these values is ChEMBL document CHEMBL1151364, “19-Hydroxybaccatin III, 10-deacetylcephalomannine, and 10-deacetyltaxol: new antitumor taxanes from Taxus wallichiana” (1981).
